Test results reported in ChEMBL document CHEMBL4043124 (Bioorg Med Chem, 2017).

Assay: Inhibition of Burkholderia pseudomallei beta-CA incubated for 15 mins by stopped-flow CO2 hydration assay

SMILES | Ki
F[P-](F)(F)(F)(F)F.[Na+] | > 100 mM
OB(O)c1ccccc1 [PHENYLBORONIC ACID] | > 100 mM
[N-]=[N+]=[N-] [SODIUM AZIDE] | > 100 mM
O=S([O-])O.[Na+] [SODIUM BISULFITE] | > 100 mM
N#CO [SODIUM CYANATE] | 6.8 mM
[F-].[Na+] [SODIUM FLUORIDE] | > 100 mM
[O-][Cl+3]([O-])([O-])O [SODIUM PERCHLORATE] | > 100 mM
O=S(=O)(O)OOS(=O)(=O)O [SODIUM PERSULFATE] | > 100 mM
O=BOB(O)OB(O)OB=O [SODIUM TETRABORATE] | > 100 mM
F[B-](F)(F)F.[Na+] [SODIUM TETRAFLUOROBORATE] | > 100 mM
